Entries after “also recorded” stand apart in the source; their conditions may differ.
Key:
FVB male mice = assay: Acute inflammatory exudates: zymosan A murine peritonitis (leukocyte infiltration); format: in vivo, mouse; settings: for anti-inflammatory potency in vivo, PMN infiltration (in words): dose range tested (FIG. 6), lavage at 2 h; for activity on PMN infiltration at higher doses / dose dependence (in words): higher doses (10 ng, 100 ng); for kind of joint anti-inflammatory action of PD1 and RvE1: 10 ng/mouse i.p. of either or both, 2 h
Procedure: Peritonitis was carried out using 6-8 week-old FVB male mice (Charles River Laboratories) fed laboratory Rodent Diet 5001 (Purina Mills) that were anesthetized with isoflurane, and compounds to be tested were administered intraperitoneally. […] Each compound tested or vehicle alone was suspended in 1 μl ethanol and mixed in sterile saline (120 μl). After intraperitoneal injections (either 2 or 4 hours of acute inflammation), the mice were sacrificed in accordance with the Harvard Medical Area Standing Committee on Animals protocol no. 02570, and peritoneal lavages were collected rapidly and placed in an ice bath (4° C.) for enumeration, differential counts, and further analysis.

[1] = tested on: human PMN transmigration across endothelial cells; assay: Human PMN transmigration across HMEC monolayers, LTB4-induced; format: cell-based; settings: compound 15 min, LTB4 10^-8 M 90 min
Procedure: PMN were freshly isolated from whole blood obtained by venipuncture from healthy human donors (who denied taking medication for 2 weeks prior to donation; BWH protocol no. 88-02642) and anti-coagulated with acid citrate dextrose as in (40, 41). Briefly, plasma and mononuclear cells were removed by aspiration from the buffy coat after centrifugation (400 g; 20 min) at room temperature. Histopaque (density 1.077) was from Sigma-Aldrich (St. Louis, Mo.). RBCs were sedimented using 2% gelatin, and residual RBCs were removed by lysis in ice-cold NH4Cl buffer. The cell suspensions were >90% PMN as determined by light microscopic evaluation. PMN were suspended at 5×10^7 cells/ml in HBSS with 10 mM Hepes, pH 7.4, and without Ca^2+ or Mg^2+ (Sigma-Aldrich, St. Louis, Mo.). PMN were used within 2 hours of their isolation.
Human Microvascular Endothelial Cells (HMEC; a gift from Francisco Candal of the Centers for Disease Control, Atlanta, Ga.) were obtained as primary cultures. For preparation of experimental HMEC monolayers, confluent endothelial cells were grown on 0.33 cm^2 ring-supported polycarbonate filters (5 μm pore size; Costar Corp., Cambridge, Mass.) in the apical-to-basolateral direction. Cells were grown for ˜1 week prior to transmigration experiments.
Transmigration was conducted essentially as in ref. (41). PMN were incubated with either vehicle-containing buffer or compound for 15 minutes at 37° C. A chemotactic gradient was established by placing HMEC inserts that had been washed in HBSS with Ca^2+ and Mg^2+ (denoted +/+) in 10^−8M LTB4 in the lower chambers. Neutrophils (10^6 cells) were added to 50 μl HBSS +/+ in the upper chambers and cells were incubated at 37° C. for 90 min. Transmigrated PMN were quantified by assessing the PMN azurophilic marker myeloperoxidase and a calibration curve. PMN were lysed by the addition of Triton X-100 to a final concentration of 0.5%. The samples were acidified with citrate buffer (final concentration 100 mM, pH 4.2). An aliquot of each sample was added to an equal volume of ABTS solution (1 mM ABTS [2′-azino-bis(3-ethylbenzo-thiazoline-6-sulfonic acid)], 0.03% H2O2, 100 mM sodium citrate buffer, pH 4.2) in a 96-well plate. The resulting color was monitored using a plate reader at 405 nm and a calibration curve for cell number.

SMILES | rank order of potency (FVB male mice; 0.1 ng dose) | anti-inflammatory potency in vivo, PMN infiltration (in words) (FVB male mice) | activity on PMN infiltration (in words) (FVB male mice; 1 ng/mouse dose) | rank order of potency (FVB male mice; 1-10 ng dose) | other results
CC/C=C\C[C@H](O)\C=C/C=C/C=C/[C@@H](O)C/C=C\C/C=C\CCC(=O)O [Compound VI, 10S,17S-dihydroxy-docosa-4Z,7Z,11E,13E,15Z,19Z-hexaenoic-acid] | Compound VI>>PD1>10S,17S-DT (the double dioxygenation product)>the Δ15-trans-PD1>>Compound V | the most potent of these isomers in vivo | – | – | anti-inflammatory potency in vivo, PMN infiltration (in words) (FVB male mice; listed as compound VI): carries bioactivity; anti-inflammatory potency in vivo, PMN infiltration (in words) (FVB male mice; listed as isomer VI): ≧PD1
CC/C=C\C[C@H](O)/C=C/C=C\C=C\[C@@H](O)C/C=C\C/C=C\CCC(=O)O [Compound I, 10S,17S-dihydroxy-docosa-4Z,7Z,11E,13Z,15E,19Z-hexaenoic acid] | Compound VI>>PD1>10S,17S-DT (the double dioxygenation product)>the Δ15-trans-PD1>>Compound V | nor did it carry potent actions; also recorded: substantially less potent; also recorded: PD1 (Compound II)>>10S,17S-diHDHA (Compound I); also recorded: possesses some anti-inflammatory activity in vivo, albeit proved to be much less potent than natural or synthetic PD1 | did display some activity | PD1≈PD1 methyl ester>>Δ15-trans PD1>10S,17S-diHDHA (isomer I) | activity on PMN infiltration (in words) (FVB male mice; 0.1 ng dose, compared to PD1): not active; activity on PMN infiltration at higher doses / dose dependence (in words) (FVB male mice): blocked PMN infiltration, but it was less potent than PD1; also recorded: did not increase with higher doses in a statistically significant fashion
CC/C=C\C[C@@H](O)\C=C/C=C/C=C/[C@@H](O)C/C=C\C/C=C\CCC(=O)O [Compound V, 10S,17R,-dihydroxy-docosa-4Z,7Z,11E,13E,15Z,19Z-hexaenoic-acid] | Compound VI>>PD1>10S,17S-DT (the double dioxygenation product)>the Δ15-trans-PD1>>Compound V | essentially without activity | – | – | anti-inflammatory potency in vivo, PMN infiltration (in words) (FVB male mice; listed as compound V): essentially inactive in vivo
CC/C=C\C[C@H](O)/C=C/C=C/C=C/[C@H](O)C/C=C\C/C=C\CCC(=O)O [Compound III, 10R,17S-dihydroxy-docosa-4Z,7Z,11E,13E,15E,19Z-hexaenoic-acid] | Compound VI>>PD1>10S,17S-DT (the double dioxygenation product)>the Δ15-trans-PD1>>Compound V | possesses little bioactivity in vitro or in vivo | substantially less potent | PD1≈PD1 methyl ester>>Δ15-trans PD1>10S,17S-diHDHA (isomer I) | effect on LTB4-induced PMN transmigration (in words) [1]: possesses little bioactivity in vitro or in vivo; effect on LTB4-induced PMN transmigration (in words) ([1]; listed as 415-trans-PD1): essentially inactive; effect on LTB4-induced PMN transmigration (in words) ([1]; listed as Δ15-trans isomer of PD1): did not block PMN transmigration in vitro
CC/C=C\C[C@H](O)\C=C/C=C/C=C/[C@H](O)C/C=C\C/C=C\CCC(=O)OC [PD1 methyl ester] | – | – | – | PD1≈PD1 methyl ester>>Δ15-trans PD1>10S,17S-diHDHA (isomer I) | –
CC/C=C\C[C@H](O)C#C/C=C/C=C/[C@H](O)C/C=C\C/C=C\CCC(=O)O [15,16-dehydro-PD1] | – | – | – | – | PMN infiltration (in words) (FVB male mice; 10 ng/mouse, 4 h after injection (FIG. 9)): retained activity in vivo; also recorded: slightly less potent than the native PD1; also recorded: reduced PMN infiltration; also recorded: Statistically different from *zymosan A-injected mice; also recorded: less potent; recruitment of monocytes and lymphocytes to exudates (in words) (FVB male mice; peritonitis, differential counts): increased the non-phlogistic recruitment of monocytes and lymphocytes
CCC=CCC(O)C=CC=CC=CC(O)CC=CCC=CCCC(=O)OC (centres unmarked) [methyl ester of Compound VI] | – | potent regulator of PMN infiltration | – | – | –
CC/C=C\C[C@H](O)/C=C/C=C\C=C\[C@H](O)C/C=C\C/C=C\CCC(=O)O [Compound IV, 10R,17S-dihydroxy-docosa-4Z,7Z,11E,13Z,15E,19Z-hexaenoic-acid] | – | – | essentially equipotent | – | activity on PMN infiltration at higher doses / dose dependence (in words) (FVB male mice): did not increase potency in a dose-dependent fashion
CC[C@@H](O)/C=C/C=C\C[C@@H](O)/C=C/C=C/C=C\[C@@H](O)CCCC(=O)O [RvE1, 5S,12R,18R-trihydroxy-6Z,8E,10E,14Z,16E-eicosapentaenoic acid, reference compound] | – | – | – | – | kind of joint anti-inflammatory action of PD1 and RvE1 (FVB male mice): additive rather than synergistic; kind of joint anti-inflammatory action of PD1 and RvE1 (FVB male mice; listed as resolvin E1): additive; PMN infiltration, PD1 and RvE1 administered together (in words) (FVB male mice; 10 ng/mouse i.p., exudates at 2 h): reduced the infiltration of PMN

Source: US9364454B2, “Anti-inflammatory actions of neuroprotectin D1/protectin D1 and its natural stereoisomers” (The Brigham and Women's Hospital, Inc., priority 2005, dated 2016)
